Measurements reported in patent publication US10478404B2, “Materials, methods and devices for altering cell reactivity” (The Arizona Board of Regents on behalf of The University of …, priority 2014, dated 2019).

Experiments:
platelets [1] = experiment: Scanning electron microscopy (SEM) of fixed DMSO-treated platelets; type: cell-based, Human; conditions: 5% and 10% DMSO
Method: (§1) Light transmission aggregometry (LTA) was performed to detect platelet desensitization using arachidonic acid, ADP, collagen, epinephrine, and ristocetin. Platelets were fixed and visualized at the varying DMSO treatments under scanning electron microscopy (SEM). […] DMSO has no effect on ristocetin-induced platelet aggregation.

[2] = tested on: Platelet rich plasma (PRP); experiment: Light transmission aggregometry (LTA) with chemical agonists; type: cell-based, Human
Method: (§2) Human blood was collected from healthy volunteers in citrated buffers. Platelet rich plasma (PRP) and gel-filtered platelets (GFP) were isolated as previously described (Girdhar, et al., PLOS One, 7(3):e32463 (2012)) then treated with percentages of DMSO (v/v) ranging from 0.95%-60%. Platelet activity state (PAS) assay of GFP sheared at 30 dyne/cm^2 via con-plate viscometer and light transmission aggregometry (LTA) of PRP and GFP induced by ADP and collagen were performed.
as §1
To examine whether membrane modulation impacted biochemical as well as shear-mediated platelet activation the following study was performed. Platelet rich plasma (PRP) was pre-incubated with varying concentrations of DMSO. PRP was then exposed to a variety of chemical agonists (ADP, Col, EpPi, Arac. Acid, or none (control)).

[3] = tested on: gel-filtered platelets (GFP); experiment: Platelet activity state (PAS) assay of gel-filtered platelets under constant shear (cone-plate viscometer); type: cell-based, Human
Method: as §2
In some experiments, varying percentages of DMSO were added to platelets, which were then subjected to defined sheer.

platelets [4] = experiment: Hyper-shear exposure via platelet hammer device (PAS); type: cell-based, Human; conditions: 0.95% (v/v) DMSO pre-incubation; shear 100-1000 dynes/cm^2; FIG. 1B
Method: To further extend the above observation, platelets were pre-incubated with DMSO, at 0.95% (v/v), and then subjected to much higher levels of shear via a platelet hammer device, i.e. shear from 100-1000 dynes/cm^2. […] These levels correlate with the levels experienced in VADs and other high shear MCS devices.

GFP = experiment: Shear-mediated platelet activation with actin stabilizing/depolymerization drugs; type: cell-based, human; conditions: 70 dyn shearing force; compared to control cells with 0.1% DMSO; FIG. 2B
Method: Platelets were collected from human volunteers and PRP obtained as described above. Platelet-activation was determined (biochemical vs. shear mediated) was determined within the context of modulation of intracellular microfilament action, as measured by the effect on actin was determined. Actin is a globular multi-functional protein that forms microfilaments. It is found in almost all eukaryotic cells where it may be present at concentrations of over 100 μM. An actin protein's mass is roughly 42-kDa and it is the monomeric subunit of two types of filaments in cells: microfilaments, one of the three major components of the cytoskeleton, and thin filaments, part of the contractile apparatus in muscle cells. It can be present as either a free monomer called G-actin (globular) or as part of a linear polymer microfilament called F-actin (filamentous).
Whole blood aggregation was determined in the presence of ADP in cells treated with cytochalasin B (FIG. 2A). Cystochalasin B inhibits both the rate of actin polymerization and the interaction of actin filaments in solution. Maclean-Fletcher, Cell, 20(2):329-41 (1980). The effect of actin stabilizing/depolymerization drugs (Jasplakinolide and cystochalasin B) in shear-mediated platelet activation was measured in GFP. […]

platelets [5] = experiment: Shear-induced platelet activation (PAS) with membrane modulators; type: cell-based, human
Method: Platelets were obtained as previously described and the effect of […] on biochemical or shear-induced (70 dyn shearing force) platelet activation was determined. Membrane modulation was effected using hydrophobic molecules such as Docosahexaenoic acid (DHA) and Eicosapentaenoic acid (EPA), the structures of which are shown below.
Shear-mediated platelet activation was also measured in the presence of DHA, EPA and wild salmon oil (FIG. 4B-C).
Shear-mediated and biochemical mediated platelet activation was also measured in the presence of the amphipathic molecules, cholesterol and lecithin. Cholesterol adds firmness and integrity to the plasma membrane and prevents it from becoming overly fluid i.e., cholesterol helps the membrane maintain its fluidity. In the studies including cholesterol, cholesterol-treated cells were compared with cells treated with 0.1% DMSO.

C[S+](C)[O-] [DMSO, dimethysulfoxide]
filopodia (SEM of platelets) (platelets [1]): significant reduction | ristocetin-induced platelet aggregation [2]: no effect | collagen-induced PRP aggregation ([2]; 0.95% to 10% DMSO): limited effect | epinephrine-induced PRP aggregation ([2]; 0.95% to 10% DMSO): limited effect | arachidonic acid-induced aggregation ([2]; 5% DMSO): inhibition | maximal aggregation (LTA) ([2]; 5% DMSO-pretreated platelets): lower maximal aggregation | platelet aggregation rate (LTA) ([2]; 5% DMSO-pretreated platelets): slower platelet aggregation rate | ADP-induced aggregation ([2]; 10% DMSO): inhibition | agonist-mediated platelet activation ([2]; PRP pre-incubated with varying DMSO, ADP, Col, Epi, Arac. Acid, inhibitory peak at higher DMSO concentrations than for shear, FIG. 1C): reduction of agonist-mediated activation | protection of platelets from shear-induced activation in comparison to control (PAS assay) ([3]; 5% DMSO, 5 min of 30 dyne/cm^2): up to 90% | DMSO percentage giving the same level of protection at longer shear exposure ([3]; 10 min of 30 dyne/cm^2): 10% | most effective DMSO percentage in protecting platelets from activation by constant shear stress and aggregation by chemical agonists ([3]; DMSO range tested 0.95%-60%): 5 % (v/v) | DMSO concentration with best protective effect ([3]; shear 30-70 dynes/cm^2, FIG. 1A): 1-5% | tolerance of hyper shear (platelets [4]): able to tolerate much higher levels of sheer

C/C1=C\[C@H](C)C[C@H](C)OC(=O)C[C@H](c2ccc(O)cc2)NC(=O)[C@@H](Cc2c(Br)[nH]c3ccccc23)N(C)C(=O)[C@H](C)NC(=O)[C@@H](C)C1 [Jasplakinolide]
shear-mediated platelet activation over time (GFP): less activation over time

lecithin
platelet sensitivity to shear stress (platelets [5]; Example 4 data): increase platelet sensitivity to shear stress | shear-induced platelet activation as measured by PAS (platelets [5]; lecithin 25 ug/ml, 30 dyn, GFP, compared to controls, FIG. 4G): increases

CC(C)CCC[C@@H](C)[C@H]1CC[C@H]2[C@@H]3CC=C4C[C@@H](O)CC[C@]4(C)[C@H]3CC[C@]12C [cholesterol]
shear-induced platelet activation (platelets [5]; 20 μM and 200 μM cholesterol, 30 dyn and 70 dyn, compared with 0.1% DMSO, FIG. 4D-E): reduces shear-induced platelet activation
